Experimental findings from patent US9073876B2, “Flap modulators” (JANSSEN PHARMACEUTICA NV, priority 2013, dated 2015) are described below.

Where a name gives a salt, the structure may show the parent alone.

For one assay, the target named is human FLAP (Homo sapiens (Human), UniProt P20292). As to the kind of experiment: FLAP binding assay (HTRF). To be noted: human FLAP-containing membranes, HTRF format; average of two assay plates, duplicates; read-out: FLAP Binding wild type HTRF Ki. The procedure, abridged:
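Samples were run in duplicate on each of two plates and the plate results averaged. Read-out is the HTRF signal ratio.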
Background: TR-FRET usually uses a lanthanide donor and a delayed reading to cut background.

Assay [1] deals with leukotriene pathway in human whole blood (LTB4 levels). Nature of the assay: Human whole blood assay (LTB4). The class given is cell-based. To be noted: human whole blood diluted 1:1 in RPMI, stimulated with calcium ionophore A23187; single replicate. The procedure, abridged:
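Heparinised human whole blood, diluted 1:1 in RPMI, was pre-incubated with test compounds for 15 min at 37° Celsius, then stimulated with A23187 (7 μg/mL) for 30 min at 37° Celsius. Plasma LTB4 was measured by immunoassay kit; IC50 from 4-parameter fit; single replicate, at least one healthy donor.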

Chain of human FLAP (P20292 whole entry): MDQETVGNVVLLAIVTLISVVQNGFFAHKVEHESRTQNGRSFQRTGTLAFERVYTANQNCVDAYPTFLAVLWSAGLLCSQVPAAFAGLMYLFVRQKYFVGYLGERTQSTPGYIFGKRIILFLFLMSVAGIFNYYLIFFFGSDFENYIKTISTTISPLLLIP

Regarding `CC(C)(C)c1ccc(-c2cnc(N)nc2)c(F)c1Oc1ncccn1` [Example 207, 5-[4-tert-Butyl-2-fluoro-3-(pyrimidin-2-yloxy)phenyl]pyrimidin-2-amine], at human FLAP, the Ki (commonly the dissociation constant of the complex between target and ligand, obtained from inhibition or displacement) was determined as 47.4 nM. Moreover, the concentration for half-maximal inhibition (IC50) (usually the midpoint of a concentration-inhibition curve) in assay [1] worked out at 72.6 nM.
Regarding `Fc1c(-c2cnc3c(c2)OCCN3)ccc(C2CCC2)c1Oc1cccc(C(F)(F)F)n1` [Example 194, 7-(4-Cyclobutyl-2-fluoro-3-{[6-(trifluoromethyl)pyridin-2-yl]oxy}phenyl)-3,4-dihydro-2H-pyrido[3,2-b][1,4]oxazine], the Ki at human FLAP was found to be 2.9 nM. Further, the IC50 in assay [1] turned out to be 168 nM.
On the same counts, the results for `Nc1cnc(-c2ccc(C3CCC3)c(Oc3ccnc(C(F)(F)F)n3)c2F)cn1` [Example 124, 5-(4-Cyclobutyl-2-fluoro-3-{[2-(trifluoromethyl)pyrimidin-4-yl]oxy}phenyl)pyrazin-2-amine] are 3 nM and 119 nM.
Regarding `Nc1cnc(-c2ccc(C3CCC3)c(Oc3ncc(C(F)(F)F)cn3)c2F)cn1` [Example 104, 5-(4-Cyclobutyl-2-fluoro-3-{[5-(trifluoromethyl)pyrimidin-2-yl]oxy}phenyl)pyrazin-2-amine], the Ki on human FLAP stood at 100 nM. Also, the 50% inhibitory concentration (IC50) in assay [1] was determined as 2810 nM.
On to `CC(C)Cc1ccc(-c2cnc(N)cn2)c(F)c1Oc1nccc(N)n1` [Example 328, 2-(3-(5-Aminopyrazin-2-yl)-2-fluoro-6-isobutylphenoxy)pyrimidin-4-amine], for which the Ki on human FLAP amounted to 113 nM. In assay [1], the half-maximal inhibitory concentration (IC50) is 312 nM.
On the same counts, the results for `COc1c(C2CCC2)ccc(-c2cnc(N)cn2)c1F` [A, 5-(4-Cyclobutyl-2-fluoro-3-methoxyphenyl)pyrazin-2-amine] are 64 nM and 531 nM.
Regarding `Nc1cnc(-c2ccc(C3CCC3)c(Oc3ccnc(-c4ccccc4)n3)c2F)cn1` [Example 144, 5-{4-Cyclobutyl-2-fluoro-3-[(2-phenylpyrimidin-4-yl)oxy]phenyl}pyrazin-2-amine], the Ki on human FLAP worked out at 1.1 nM. In addition, the IC50 in assay [1] worked out at 22.3 nM.
On to `CS(=O)(=O)c1ccc(Oc2c(C3CCC3)ccc(-c3cnc(N)cn3)c2F)c(Cl)c1` [Example 123, 5-{3-[2-Chloro-4-(methylsulfonyl)phenoxy]-4-cyclobutyl-2-fluorophenyl}pyrazin-2-amine], for which the Ki at human FLAP worked out at 7 nM. Further, in assay [1], the IC50 turned out to be 4480 nM.
For `Nc1cnc(-c2ccc(C3CCC3)c(OCc3cccnc3)c2F)cn1` [Example 13, 5-[4-Cyclobutyl-2-fluoro-3-(pyridin-3-ylmethoxy)phenyl]pyrazin-2-amine], the Ki at human FLAP came out at 250 nM. Moreover, the IC50 in assay [1] worked out at 1290 nM.
Turning to `Fc1c(-c2cnc3[nH]ccc3n2)ccc(C2CCCC2)c1OCc1ccccc1` [Example 214, 2-[3-(Benzyloxy)-4-cyclopentyl-2-fluorophenyl]-5H-pyrrolo[2,3-b]pyrazine], the inhibitory constant (Ki) at human FLAP came to 30.8 nM. Also, in assay [1], the concentration for half-maximal inhibition (IC50) was 1090 nM.
For the compound `Nc1cnc(-c2ccc(C3CCC3)c(OCc3ccccc3Cl)c2F)cn1` [Example 34, 5-{3-[(2-Chlorobenzyl)oxy]-4-cyclobutyl-2-fluorophenyl}pyrazin-2-amine], the inhibition constant (Ki) at human FLAP came out at 304 nM. For the same compound, the half-maximal inhibitory concentration (IC50) in assay [1] came to 1570 nM.
In the case of `Nc1cnc(NCC(O)COc2c(C3CCC3)ccc(-c3cnc(N)cn3)c2F)nc1` (racemic) [Example 58, racemic 1-(3-(5-Aminopyrazin-2-yl)-6-cyclobutyl-2-fluorophenoxy)-3-((5-aminopyrimidin-2-yl)amino)propan-2-ol], the inhibition constant (Ki) at human FLAP stood at 30 nM. For the same compound, the half-inhibitory concentration (IC50) in assay [1] amounted to 374 nM.
On to `N#Cc1ccc(COc2c(C3CCC3)ccc(-c3cnc(N)cn3)c2F)cc1` [Example 15, 4-{[3-(5-Aminopyrazin-2-yl)-6-cyclobutyl-2-fluorophenoxy]methyl}benzonitrile], for which the Ki at human FLAP was 193 nM. In assay [1], the concentration for half-maximal inhibition (IC50) stood at 1240 nM.
As for `CS(=O)(=O)c1ccc(COc2c(C3CCC3)ccc(-c3cnc4c(c3)OCCN4)c2F)cc1` [Example 189, 7-(4-Cyclobutyl-2-fluoro-3-{[4-(methylsulfonyl)-benzyl]-oxy}-phenyl)-3,4-dihydro-2H-pyrido[3,2-b][1,4]oxazine], the inhibition constant Ki on human FLAP came out at 9.8 nM. Also, the IC50 in assay [1] was found to be 1140 nM.
Consider `N#Cc1cccc(COc2c(C3CCC3)ccc(-c3cnc(N)cn3)c2F)n1` [Example 292, 6-{[3-(5-Aminopyrazin-2-yl)-6-cyclobutyl-2-fluorophenoxy]methyl}pyridine-2-carbonitrile trifluoroacetic acid salt], for which, on human FLAP, the Ki was determined as 37.2 nM. Besides, in assay [1], the concentration for half-maximal inhibition (IC50) amounted to 412 nM.
Take `CC(C)(C)OC(=O)N1CCCC1COc1c(C2CCC2)ccc(-c2cnc(N)cn2)c1F` (stereo not shown) [Example 248, tert-butyl 2-((3-(5-aminopyrazin-2-yl)-6-cyclobutyl-2-fluorophenoxy)methyl)pyrrolidine-1-carboxylate]: the inhibition constant Ki on human FLAP was 261 nM. Besides, the concentration for half-maximal inhibition (IC50) in assay [1] was determined as 10000 nM.
On the same counts, the results for `COC(=O)c1ccc(O)c(NC(=O)COc2c(C3CCC3)ccc(-c3cnc(N)cn3)c2F)c1` [Example 263, Methyl 3-({[3-(5-aminopyrazin-2-yl)-6-cyclobutyl-2-fluorophenoxy]acetyl}amino)-4-hydroxybenzoate] are 138 nM and 1960 nM.
On the same counts, the results for `CC(C)c1cc(Oc2c(C3CCC3)ccc(-c3cnc(N)nc3)c2F)nc(N)n1` [Example 168, 4-(3-(2-aminopyrimidin-5-yl)-6-cyclobutyl-2-fluorophenoxy)-6-isopropylpyrimidin-2-amine] are 2.8 nM and 36.1 nM.
On the same counts, the results for `Nc1cnc(-c2ccc(C3CCC3)c(Oc3ncccn3)c2F)cn1` [Example 118, 5-[4-Cyclobutyl-2-fluoro-3-(pyrimidin-2-yloxy)phenyl]pyrazin-2-amine] are 10.5 nM and 65.7 nM.
As to `Cc1nccc(Oc2c(C3CCC3)ccc(-c3cnc(N)cn3)c2F)n1` [Example 134, 5-{4-Cyclobutyl-2-fluoro-3-[(2-methylpyrimidin-4-yl)oxy]phenyl}pyrazin-2-amine], the Ki on human FLAP worked out at 6.2 nM. The IC50 in assay [1] amounted to 39.7 nM.
On to `Nc1cnc(-c2ccc(C3CCC3)c(OCC(O)Cn3nccn3)c2F)cn1` (racemic) [Example 64, racemic 1-(3-(5-Aminopyrazin-2-yl)-6-cyclobutyl-2-fluorophenoxy)-3-(2H-1,2,3-triazol-2-yl)propan-2-ol], for which the inhibition constant (Ki) on human FLAP was 86 nM. Besides, the IC50 in assay [1] worked out at 275 nM.
With `COc1c(C2CCC2)ccc(-c2cnc3[nH]cnc3c2)c1F` [Example 183, 6-(4-Cyclobutyl-2-fluoro-3-methoxyphenyl)-3H-imidazo[4,5-b]pyridine], at human FLAP, the inhibition constant (Ki) turned out to be 328 nM. Besides, the concentration for half-maximal inhibition (IC50) in assay [1] was over 10000 nM.
On to `Nc1cnc(-c2ccc(C3CCC3)c(OCc3ccccc3C(F)(F)F)c2F)cn1` [Example 3, 5-(4-Cyclobutyl-2-fluoro-3-{[2-(trifluoromethyl)benzyl]oxy}phenyl)-pyrazin-2-amine], for which the inhibition constant Ki on human FLAP came to 250 nM. Moreover, the concentration for half-maximal inhibition (IC50) in assay [1] came out at 271 nM.
Regarding `Nc1cnc(-c2ccc(C3CCC3)c(OCCc3ccc(C(=O)O)cc3)c2F)cn1` [Example 84, 4-{2-[3-(5-Aminopyrazin-2-yl)-6-cyclobutyl-2-fluorophenoxy]ethyl}benzoic acid], the Ki at human FLAP was 70 nM. Moreover, the IC50 in assay [1] was determined as 886 nM.
On the same counts, the results for `CNS(=O)(=O)c1ccc(COc2c(C3CCC3)ccc(-c3cnc(N)cn3)c2F)cc1` [Example 27, 4-{[3-(5-Aminopyrazin-2-yl)-6-cyclobutyl-2-fluorophenoxy]methyl}-N-methylbenzenesulfonamide] are 6 nM and 805 nM.
With `Nc1cnc(-c2ccc(C3CCC3)c(Oc3ccc(S(F)(F)(F)(F)F)cc3)c2F)cn1` [Example 115, 5-{4-Cyclobutyl-2-fluoro-3-[4-(pentafluoro-lambda~6~- sulfanyl)phenoxy]phenyl}pyrazin-2-amine], on human FLAP, the Ki came out at 297 nM. Besides, the half-inhibitory concentration (IC50) in assay [1] turned out to be 1110 nM.
Turning to `Nc1cnc(-c2ccc(C3CCC3)c(Oc3nccc(C(F)(F)F)n3)c2F)cn1` [Example 131, 5-(4-Cyclobutyl-2-fluoro-3-{[4-(trifluoromethyl)pyrimidin-2-yl]oxy}phenyl)pyrazin-2-amine], on human FLAP, the inhibition constant Ki worked out at 5.6 nM. Besides, the half-inhibitory concentration (IC50) in assay [1] came to 67.9 nM.
With `CS(=O)(=O)c1ccc(COc2c(C3CCC3)ccc(-c3cnc(N)cn3)c2F)cc1` [Example 7, 5-(4-Cyclobutyl-2-fluoro-3-{[4-(methylsulfonyl)benzyl]oxy}phenyl)-pyrazin-2-amine], the Ki on human FLAP came to 7 nM. Also, in assay [1], the half-maximal inhibitory concentration (IC50) was found to be 1400 nM.
On to `Fc1c(-c2cnc3c(c2)OCCN3)ccc(C2CCC2)c1Oc1ncccn1` [Example 225, 7-(4-cyclobutyl-2-fluoro-3-(pyrimidin-2-yloxy)phenyl)-3,4-dihydro-2H-pyrido[3,2-b][1,4]oxazine], for which the Ki at human FLAP turned out to be 2.5 nM. Further, the IC50 in assay [1] was 68.4 nM.
As to `Nc1cnc(-c2ccc(C3CCC3)c(Oc3cc(C4CC4)ncn3)c2F)cn1` [Example 141, 5-{4-Cyclobutyl-3-[(6-cyclopropylpyrimidin-4-yl)oxy]-2-fluorophenyl}pyrazin-2-amine], the inhibition constant Ki on human FLAP came out at 5 nM. The half-maximal inhibitory concentration (IC50) in assay [1] stood at 58.6 nM.
Consider `Nc1cnc(-c2ccc(C3CCC3)c(OCc3cccc(F)c3)c2F)cn1` [Example 29, 5-{4-Cyclobutyl-2-fluoro-3-[(3-fluorobenzyl)oxy]phenyl}pyrazin-2-amine], for which, at human FLAP, the inhibition constant Ki came to 224 nM. Also, in assay [1], the IC50 came to 1060 nM.
For the compound `Fc1c(-c2cnc3c(c2)OCCN3)ccc(C2CCC2)c1OCc1ccccc1` [Example 186, 7-[3-(Benzyloxy)-4-cyclobutyl-2-fluorophenyl]-3,4-dihydro-2H-pyrido[3,2-b][1,4]oxazine], the inhibition constant Ki on human FLAP stood at 20.5 nM. The IC50 in assay [1] is 531 nM.
